From patent publication US20050234046A1 (Kalypsys, Inc., priority 2004, published 2005)

Experiments:
Assay in all cases: Transient transfection (transactivation) assay in CV-1 cells, GAL4-PPAR chimera, luciferase reporter
Type in all cases: cell-based
[1] = target: T1, PPAR gamma (Homo sapiens, UniProt P37231)
T1 construct: expressed in transfected cells; host or cells: CV-1 cells
T1 sequence (P37231 238-503 limits assumed): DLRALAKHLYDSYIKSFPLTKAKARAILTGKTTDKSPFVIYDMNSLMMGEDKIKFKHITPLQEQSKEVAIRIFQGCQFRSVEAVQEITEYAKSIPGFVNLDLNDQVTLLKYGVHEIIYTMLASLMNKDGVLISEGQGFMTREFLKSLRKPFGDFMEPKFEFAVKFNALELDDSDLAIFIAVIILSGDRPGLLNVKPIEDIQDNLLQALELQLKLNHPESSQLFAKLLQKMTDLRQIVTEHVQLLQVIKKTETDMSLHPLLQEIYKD

[2] = target: T2, PPAR delta (Homo sapiens, UniProt Q03181)
T2 construct: expressed in transfected cells; host or cells: CV-1 cells
T2 sequence (Q03181 211-439 limits assumed): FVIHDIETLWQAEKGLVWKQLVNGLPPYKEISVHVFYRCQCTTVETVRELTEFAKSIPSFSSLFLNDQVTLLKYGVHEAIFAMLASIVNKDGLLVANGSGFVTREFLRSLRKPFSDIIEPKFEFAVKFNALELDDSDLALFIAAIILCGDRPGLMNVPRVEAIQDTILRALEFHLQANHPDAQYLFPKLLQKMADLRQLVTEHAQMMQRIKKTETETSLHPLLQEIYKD

[3] = target: T3, PPAR alpha (Homo sapiens, UniProt Q07869)
T3 construct: expressed in transfected cells; host or cells: CV-1 cells
T3 sequence (Q07869 239-466 limits assumed): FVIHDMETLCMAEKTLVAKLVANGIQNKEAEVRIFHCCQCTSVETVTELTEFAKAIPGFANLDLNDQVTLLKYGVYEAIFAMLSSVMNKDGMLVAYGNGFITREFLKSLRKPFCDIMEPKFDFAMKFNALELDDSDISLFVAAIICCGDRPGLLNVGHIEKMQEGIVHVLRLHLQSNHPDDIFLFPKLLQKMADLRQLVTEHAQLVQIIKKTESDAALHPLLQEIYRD
In short: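 GAL4 DNA-binding domain fused to PPAR ligand binding domain, co-transfected into CV-1 cells with a luciferase reporter carrying four or five GAL4 sites. Replated cells in phenol-red free DME with 5% delipidated calf serum were treated with compound or 1% DMSO for 20-24 hours; luciferase read for EC50 and efficacy.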

Row | Compound | EC50 [1] [µM] | EC50 [2] [µM] | EC50 [3] [µM]
1 | Cc1cc(CC(=O)O)cc(S(=O)(=O)N2[C@H](C)CN(c3ccc(C(F)(F)F)c(F)c3)C[C@@H]2C)c1 [Example 222] | > 100 | < 5 | 5 to 100
2 | Cc1cc(CC(=O)O)cc(S(=O)(=O)N2CCN(c3ccc(OC(F)(F)F)cc3)CC2)c1 [Example 223, {3-Methyl-5-[4-(4-trifluoromethoxy-phenyl)-piperazine-1-sulfonyl]-phenyl}-acetic acid] | 5 to 100 | < 5 | 5 to 100
3 | Cc1cc(CC(=O)O)cc(S(=O)(=O)N2CCN(c3ccc(OC(F)(F)F)cc3)[C@@H](C)C2)c1 [Example 224, {3-Methyl-5-[3-(s)-methyl-4-(4-trifluoromethoxy-phenyl)-piperazine-1-sulfonyl]-phenyl}-acetic acid] | 5 to 100 | < 5 | 5 to 100
4 | Cc1cc(CC(=O)O)cc(S(=O)(=O)N2CCN(c3ccc(C(F)(F)F)cn3)CC2)c1 [Example 225] | < 5 | < 5 | 5 to 100
5 | C[C@H]1CN(c2ccc(OC(F)(F)F)cc2)CCN1S(=O)(=O)c1cccc(CC(=O)O)c1 [Example 226, {3-[2-(s)-Methyl-4-(4-trifluoromethoxy-phenyl)-piperazine-1-sulfonyl]-phenyl}-acetic acid] | 5 to 100 | < 5 | 5 to 100
6 | C[C@@H]1CN(S(=O)(=O)c2cccc(CC(=O)O)c2)C[C@H](C)N1c1ccc(C(F)(F)F)cn1 [Example 227, 2-(3-(-3,5-Dimethyl-4-(5-(trifluoromethyl)pyridine-2-yl)piperazin-1-ylsulfonyl)phenyl)acetic acid] | < 5 | < 5 | 5 to 100
7 | Cc1cc(CC(=O)O)cc(S(=O)(=O)N2C[C@@H](C)N(c3ccc(C(F)(F)F)cn3)[C@@H](C)C2)c1 [Example 228, 2-(3-(-3,5-Dimethyl-4-(5-(trifluoromethyl)pyridine-2-yl)piperazin-1-ylsulfonyl)-5-methylphenyl)acetic acid] | < 5 | < 5 | 5 to 100
8 | Cc1cc(CC(=O)O)cc(S(=O)(=O)N2C3CCC2CN(c2ccc(OC(F)(F)F)cc2)C3)c1 [Example 233, {3-Methyl-5-[3-(4-trifluoromethoxy-phenyl)-3,8-diaza-bicyclo[3.2.1]octane-8-sulfonyl]-phenyl}-acetic acid] | 5 to 100 | < 5 | 5 to 100

Other lines, results leading:

Row | EC50 [1] [µM] | EC50 [2] [µM] | EC50 [3] [µM] | Compound
9 | > 100 | < 5 | > 100 | Cc1cc(CC(=O)O)cc(S(=O)(=O)N2[C@H](C)CN(c3ccc(C(F)(F)F)cn3)C[C@@H]2C)c1 [Example 229, {3-[2,6-Dimethyl-4-(5-trifluoromethyl-pyridin-2-yl)-piperazine-1-sulfonyl]-5-methyl-phenyl}-acetic acid]
10 | 5 to 100 | < 5 | 5 to 100 | O=C(O)Cc1c(F)ccc(S(=O)(=O)N2CCN(c3ccc(C(F)(F)F)cn3)CC2)c1F [Example 230, {2,6-Difluoro-3-[4-(5-trifluoromethyl-pyridin-2-yl)-piperazine-1-sulfonyl]-phenyl}-acetic acid]
11 | > 100 | 5 to 100 | > 100 | C[C@@H]1CN(c2ccc(C(F)(F)F)cn2)C[C@H](C)N1S(=O)(=O)c1ccc(F)c(CC(=O)O)c1F [Example 231, {3-[2,6-Dimethyl-4-(5-trifluoromethyl-pyridin-2-yl)-piperazine-1-sulfonyl]-2,6-difluoro-phenyl}-acetic acid]
12 | > 100 | < 5 | > 100 | C[C@@H]1CN(c2ccc(OC(F)(F)F)cc2)C[C@H](C)N1S(=O)(=O)c1ccc(F)c(CC(=O)O)c1F [Example 232, {3-[2,6-Dimethyl-4-(4-trifluoromethoxy-phenyl)-piperazine-1-sulfonyl]-2,6-difluoro-phenyl}-acetic acid]
